16 compounds from patent US20230072683A1, “PYRIDO-PYRIMIDIN DERIVATIVES AND PHARMACEUTICAL COMPOSITION, FOR USE IN PREVENTING OR TREATING PI3 KINASE RELATED DISEASES, COMPRISING SAME AS ACTIVE INGREDIENT” (BORYUNG PHARMACEUTICAL CO., LTD, priority 2019, published 2023) can be followed below.

The target in experiment [1] is PI3K-δ (PI3K(p1108/p857) (h)) (Homo sapiens, UniProt O00329). As to the kind of experiment: Evaluation of inhibitory activity against PI3K-δ (HTRF kinase assay). Format: biochemical. To be noted: compound concentration 0.01 μM; read-out: EXP_VALUE(% Inhibition) PI3K-δ 0.01 μM. The method in brief: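 HTRF read-out (665/620 nm ratio ×10000) used Eu-labelled anti-GST, GST-tagged GRP1 PH domain and streptavidin-allophycocyanin after EDTA/PIP3 stop.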
For orientation: TR-FRET usually uses a lanthanide donor and a delayed reading to cut background.

For another experiment, the target named is DNA-PK(h) (Homo sapiens, UniProt P78527). As to the kind of experiment: Evaluation of inhibitory activity against DNA-PK (HTRF kinase assay, GST-cMyc-p53 substrate). It counts as biochemical. To be noted: compound concentration 0.01 μM; read-out: EXP_VALUE(% Inhibition) DNA-PK(h) 0.01 μM. The method, boiled down: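 Human DNA-PK with 50 μM GST-cMyc-p53 substrate; reaction started with Mg/ATP, run 30 min at room temperature, stopped with EDTA. Phospho-Ser15 p53 detected by HTRF (Eu anti-phospho-Ser15, d2 anti-GST), signal = 10000×(Em 665/Em 620).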

Chain of PI3K-δ (PI3K(p1108/p857) (h)) (O00329 whole entry, the tested form may be a part): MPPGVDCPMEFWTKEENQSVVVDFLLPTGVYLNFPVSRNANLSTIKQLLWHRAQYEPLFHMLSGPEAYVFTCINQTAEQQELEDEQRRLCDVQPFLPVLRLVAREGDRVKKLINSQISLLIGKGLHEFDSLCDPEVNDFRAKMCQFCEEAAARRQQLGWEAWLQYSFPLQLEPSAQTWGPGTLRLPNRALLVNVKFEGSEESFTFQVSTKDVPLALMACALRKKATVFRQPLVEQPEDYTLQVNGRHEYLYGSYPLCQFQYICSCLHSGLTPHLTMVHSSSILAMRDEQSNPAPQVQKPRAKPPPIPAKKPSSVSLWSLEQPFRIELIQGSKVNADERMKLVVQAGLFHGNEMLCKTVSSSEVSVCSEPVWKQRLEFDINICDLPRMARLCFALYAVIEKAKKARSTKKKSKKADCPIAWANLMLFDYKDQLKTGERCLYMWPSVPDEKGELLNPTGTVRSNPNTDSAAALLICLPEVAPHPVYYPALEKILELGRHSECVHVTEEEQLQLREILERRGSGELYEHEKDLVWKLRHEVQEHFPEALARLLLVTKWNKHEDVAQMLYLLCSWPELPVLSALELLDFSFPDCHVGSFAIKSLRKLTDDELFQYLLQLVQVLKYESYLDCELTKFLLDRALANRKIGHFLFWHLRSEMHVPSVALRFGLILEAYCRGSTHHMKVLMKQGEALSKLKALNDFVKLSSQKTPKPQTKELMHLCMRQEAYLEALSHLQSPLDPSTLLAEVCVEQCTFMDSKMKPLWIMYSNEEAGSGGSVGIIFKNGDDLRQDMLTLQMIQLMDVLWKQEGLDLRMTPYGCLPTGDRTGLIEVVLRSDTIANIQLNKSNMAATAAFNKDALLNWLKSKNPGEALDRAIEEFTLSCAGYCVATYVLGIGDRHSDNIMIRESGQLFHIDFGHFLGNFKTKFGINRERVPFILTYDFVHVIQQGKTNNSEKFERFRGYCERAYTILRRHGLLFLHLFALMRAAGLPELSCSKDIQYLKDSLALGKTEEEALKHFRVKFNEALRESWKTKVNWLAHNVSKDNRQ
Chain of PI3K-δ (PI3K(p1108/p857) (h)) (P27986 whole entry partner, the tested form may be a part): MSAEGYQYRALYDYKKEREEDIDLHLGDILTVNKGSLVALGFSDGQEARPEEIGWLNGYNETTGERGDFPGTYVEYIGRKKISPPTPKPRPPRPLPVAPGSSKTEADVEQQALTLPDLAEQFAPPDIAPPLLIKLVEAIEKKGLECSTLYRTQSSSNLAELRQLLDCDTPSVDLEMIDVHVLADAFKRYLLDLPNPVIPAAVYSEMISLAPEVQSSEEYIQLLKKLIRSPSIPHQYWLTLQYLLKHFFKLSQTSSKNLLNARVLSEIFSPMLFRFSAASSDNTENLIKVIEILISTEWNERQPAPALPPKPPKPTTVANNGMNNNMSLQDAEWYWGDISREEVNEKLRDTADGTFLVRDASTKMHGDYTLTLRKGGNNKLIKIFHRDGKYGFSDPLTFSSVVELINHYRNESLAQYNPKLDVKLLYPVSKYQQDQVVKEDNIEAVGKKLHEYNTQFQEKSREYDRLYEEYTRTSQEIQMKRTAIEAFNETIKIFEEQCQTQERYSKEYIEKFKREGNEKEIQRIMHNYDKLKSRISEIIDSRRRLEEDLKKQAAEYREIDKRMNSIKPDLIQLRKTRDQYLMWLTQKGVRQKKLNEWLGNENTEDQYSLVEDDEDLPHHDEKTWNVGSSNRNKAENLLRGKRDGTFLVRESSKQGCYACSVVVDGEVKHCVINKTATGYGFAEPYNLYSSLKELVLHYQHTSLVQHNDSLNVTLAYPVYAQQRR

What is called inhibition is the percentage by which the read-out fell short of the control. Turning to `C[C@H](Nc1ncnc2[nH]ccc(=O)c12)c1c(Cl)c2cccc(-c3cnc(N4CCN(C)CC4)nc3)c2c(=O)n1-c1ccccc1` [Example 216, (S)-4-((1-(4-chloro-8-(2-(4-methylpiperazin-1-yl)pyrimidin-5-yl)-1-oxo-2-phenyl-1,2-dihydroisoquinolin-3-yl)ethyl)amino)pyrido[2,3-d]pyrimidin-5(8H)-one], the inhibition at 0.01 µM in experiment [1] came out at 96%; on DNA-PK(h), 75%.

In the case of `CCN(CC)c1ncc(-c2cccc3c(Cl)c([C@H](C)Nc4ncnc5[nH]ccc(=O)c45)n(-c4ccccc4)c(=O)c23)cn1` [Example 217, (S)-4-((1-(4-chloro-8-(2-(diethylamino)pyrimidin-5-yl)-1-oxo-2-phenyl-1,2-dihydroisoquinolin-3-yl)ethyl)amino)pyrido[2,3-d]pyrimidin-5(8H)-one], the inhibition at 0.01 µM stood at 71% in experiment [1] and 66% on DNA-PK(h).

For `C[C@H](Nc1ncnc2[nH]ccc(=O)c12)c1c(Cl)c2cccc(-c3cncc(S(C)(=O)=O)c3)c2c(=O)n1-c1ccccc1` [Example 218, (S)-4-((1-(4-chloro-8-(5-(methylsulfonyl)pyridin-3-yl)-1-oxo-2-phenyl-1,2-dihydroisoquinolin-3-yl)ethyl)amino)pyrido[2,3-d]pyrimidin-5(8H)-one], the inhibition at 0.01 µM in experiment [1] came to 99%; on DNA-PK(h), 85%.

`C[C@H](Nc1ncnc2[nH]ccc(=O)c12)c1c(Cl)c2cccc(-c3ccc(S(C)(=O)=O)nc3)c2c(=O)n1-c1ccccc1` [Example 219, (S)-4-((1-(4-chloro-8-(6-(methylsulfonyl)pyridin-3-yl)-1-oxo-2-phenyl-1,2-dihydroisoquinolin-3-yl)ethyl)amino)pyrido[2,3-d]pyrimidin-5(8H)-one]: the inhibition at 0.01 µM in experiment [1] came to 97%; on DNA-PK(h) it was 82%.

As for `CC(C)Nc1ncc(-c2cccc3c(Cl)c([C@H](C)Nc4ncnc5[nH]ccc(=O)c45)n(-c4ccccc4)c(=O)c23)cn1` [Example 220, (S)-4-((1-(4-chloro-8-(2-(isopropylamino)pyrimidin-5-yl)-1-oxo-2-phenyl-1,2-dihydroisoquinolin-3-yl)ethyl)amino)pyrido[2,3-d]pyrimidin-5(8H)-one], the inhibition at 0.01 µM turned out to be 87% in experiment [1] and 73% at DNA-PK(h).

Consider `COc1cnc(-c2cccc3c(Cl)c([C@H](C)Nc4ncnc5[nH]ccc(=O)c45)n(-c4ccccc4)c(=O)c23)cn1` [Example 221, (S)-4-((1-(4-chloro-8-(5-methoxypyrazin-2-yl)-1-oxo-2-phenyl-1,2-dihydroisoquinolin-3-yl)ethyl)amino)pyrido[2,3-d]pyrimidin-5(8H)-one], for which the values for the inhibition at 0.01 µM (in experiment [1]; on DNA-PK(h)) were 67% and 27%, respectively.

Take `C[C@H](Nc1ncnc2[nH]ccc(=O)c12)c1c(Cl)c2cccc(-c3cnc(N4CCCC4)nc3)c2c(=O)n1-c1ccccc1` [Example 222, (S)-4-((1-(4-chloro-1-oxo-2-phenyl-8-(2-(pyrrolidin-1-yl)pyrimidin-5-yl)-1,2-dihydroisoquinolin-3-yl)ethyl)amino)pyrido[2,3-d]pyrimidin-5(8H)-one]: the inhibition at 0.01 µM in experiment [1] was 75%; on DNA-PK(h), 55%.

As for `C[C@H](Nc1ncnc2[nH]ccc(=O)c12)c1c(Cl)c2cccc(-c3ccc(OC(F)(F)F)nc3)c2c(=O)n1-c1ccccc1` [Example 223, (S)-4-((1-(4-chloro-1-oxo-2-phenyl-8-(6-(trifluoromethoxy)pyridin-3-yl)-1,2-dihydroisoquinolin-3-yl)ethyl)amino)pyrido[2,3-d]pyrimidin-5(8H)-one], the inhibition at 0.01 µM in experiment [1] came to 68%; on DNA-PK(h), 34%.

`C[C@H](Nc1ncnc2[nH]ccc(=O)c12)c1c(Cl)c2cccc(-c3cnc(N4CCCCC4)nc3)c2c(=O)n1-c1ccccc1` [Example 224, (S)-4-((1-(4-chloro-1-oxo-2-phenyl-8-(2-(piperidin-1-yl)pyrimidin-5-yl)-1,2-dihydroisoquinolin-3-yl)ethyl)amino)pyrido[2,3-d]pyrimidin-5(8H)-one]: the inhibition at 0.01 µM in experiment [1] is 57%; at DNA-PK(h), 19%.

Consider `COc1ncc(-c2cccc3c(Cl)c([C@H](C)Nc4ncnc5[nH]ccc(=O)c45)n(-c4ccccc4)c(=O)c23)cc1NS(C)(=O)=O` [Example 225, (S)—N-(5-(4-chloro-1-oxo-3-(1-((5-oxo-5,8-dihydropyrido[2,3-d]pyrimidin-4-yl)amino)ethyl)-2-phenyl-1,2-dihydroisoquinolin-8-yl)-2-methoxypyridin-3-yl)methanesulfonamide], for which the inhibition at 0.01 µM in experiment [1] turned out to be 74%; at DNA-PK(h) it was 76%.

Consider `C[C@H](Nc1ncnc2[nH]ccc(=O)c12)c1c(Cl)c2cccc(-c3cc[nH]n3)c2c(=O)n1-c1ccccc1` [Example 226, (S)-4-((1-(4-chloro-1-oxo-2-phenyl-8-(1H-pyrazol-3-yl)-1,2-dihydroisoquinolin-3-yl)ethyl)amino)pyrido[2,3-d]pyrimidin-5(8H)-one], for which the inhibition at 0.01 µM in experiment [1] worked out at 83%; on DNA-PK(h), 56%.

For the compound `C[C@H](Nc1ncnc2[nH]ccc(=O)c12)c1c(Cl)c2cccc(-c3cn[nH]c3)c2c(=O)n1-c1ccccc1` [Example 227, (S)-4-((1-(4-chloro-1-oxo-2-phenyl-8-(1H-pyrazol-4-yl)-1,2-dihydroisoquinolin-3-yl)ethyl)amino)pyrido[2,3-d]pyrimidin-5(8H)-one], the inhibition at 0.01 µM in experiment [1] came to 93%; at DNA-PK(h), 73%.

`CCNc1ncc(-c2cccc3c(Cl)c([C@H](C)Nc4ncnc5[nH]ccc(=O)c45)n(-c4ccccc4)c(=O)c23)cn1` [Example 228, (S)-4-((1-(4-chloro-8-(2-(ethylamino)pyrimidin-5-yl)-1-oxo-2-phenyl-1,2-dihydroisoquinolin-3-yl)ethyl)amino)pyrido[2,3-d]pyrimidin-5(8H)-one]: the inhibition at 0.01 µM in experiment [1] amounted to 88%; on DNA-PK(h), 78%.

Consider `COc1ncc(-c2cccc3c(Cl)c([C@H](C)Nc4ncnc5[nH]ccc(=O)c45)n(-c4ccccc4)c(=O)c23)cc1C#N` [Example 229, (S)-5-(4-chloro-1-oxo-3-(1-((5-oxo-5,8-dihydropyrido[2,3-d]pyrimidin-4-yl)amino)ethyl)-2-phenyl-1,2-dihydroisoquinolin-8-yl)-2-methoxynicotinonitrile], for which the inhibition at 0.01 µM in experiment [1] was determined as 68%; at DNA-PK(h) it was 45%.

Consider `CCOc1cnc(-c2cccc3c(Cl)c([C@H](C)Nc4ncnc5[nH]ccc(=O)c45)n(-c4ccccc4)c(=O)c23)cn1` [Example 230, (S)-4-((1-(4-chloro-8-(5-ethoxypyrazin-2-yl)-1-oxo-2-phenyl-1,2-dihydroisoquinolin-3-yl)ethyl)amino)pyrido[2,3-d]pyrimidin-5(8H)-one], for which the results for the inhibition at 0.01 µM (in experiment [1]; at DNA-PK(h)) were 76% and 41%, respectively.

On to `C[C@H](Nc1ncnc2[nH]ccc(=O)c12)c1c(Cl)c2cccc(-c3ccc(CN4CCOCC4)cc3F)c2c(=O)n1-c1ccccc1` [Example 231, (S)-4-((1-(4-chloro-8-(2-fluoro-4-(morpholinomethyl)phenyl)-1-oxo-2-phenyl-1,2-dihydroisoquinolin-3-yl)ethyl)amino)pyrido[2,3-d]pyrimidin-5(8H)-one], for which the inhibition at 0.01 µM in experiment [1] was determined as 44%; at DNA-PK(h), 67%.
